According to patent US7074925B1, “N-substituted derivatives of 5-oxyiminobarbituric acid” (priority 1998, dated 2006):

Tests used:
[1] = test system: primary culture of human lymphocytes (IFN-α production); experiment: Interferon-inducing activity in primary culture of human lymphocytes; assay type: cell-based
Procedure: Interferon synthesis induction caused by the claimed compounds was conducted on a primary culture of human lymphocytes (it is these cells in a human organism that are the main producers of interferons). To obtain lymphocyte culture, fresh blood (within 12 hours after sampling) from healthy donors (not of group II) was used. To separate lymphocytes, heparinized blood obtained from healthy donor was centrifuged in a density gradient of ficoll-verografin of […] in order to extract a fraction of immunocompetent cells. This fraction was selected and diluted with the nutrient medium RPMI-1640, containing 5% of fetal calf serum, 0.3 mg/ml of L-glutamin, 100 un/ml of penicillin, and […] of streptomycin. The concentration of lymphocytes was considered after dying them with methylene blue and calculation of cell number in Goryaev chamber. Initial solutions of the claimed compounds were diluted with the nutrient medium RPMI-1640 so that the final concentrations of the compounds, which were obtained after introduction of lymphocyte suspension, constituted the raw: 100 μg/ml, 10 μg/ml, 1 μg/ml. The final concentration of lymphocytes in the induction mixture was 3×10^6 cell/ml.
In parallels to the test samples the following controls were done: • 1). Control of spontaneous production of interferons (IFN) by lymphocytes. • 2). […] Control of spontaneous production of interferons in presence of DMSO taken in an amount corresponding to the test samples.
Control and test samples were incubated for 24 hours at the temperature of 37° C. After incubation, the samples were centrifuged at 2,000 G to deposit cell elements, and IFN-containing supernatant was separate out of samples; then the supernatant was analyzed for the quantitative content of IFN. Cell deposition was resuspended in the previous volume of nutrient medium, coloured with vital dye trypan blue, and cell number was counted in the Goryaev chamber (as described above) to determine cytotoxic action of the compounds. The quantitative determination of content of IFN in control and test samples was conducted using the immunoenzyme test system Pro Con IF2 Plus, that is intended for determination of IFN-α, which is produced by TOO “Protein contour”. The solid-phase immunoenzyme method, utilizing horse radish peroxidase as an indicator enzyme, was used to determine the quantity of interferon in the samples. Activity of the bonded peroxidase was measured using an automatic photometer for microplates with a microprocessor at the wavelength of 450 nm.
Based on the obtained results, a calibrating curve was formed, which allows to obtain data expressed in international units (IU) of activity, using the microprocessor of the automatic photometer. The results of the analysis are expressed in IU of activity of IFN per ml in the given induction system, which contains 3×10^4 lymphocyte/ml. Each test and control point was investigated in four parallels.
Controls of immunoenzyme reaction: • 1. Control of DMSO with a nutrient medium. • 2. Control of system components (according to an instruction).
The obtained data were undergone a statistical analysis using t-criterion, and calculation of the confident interval of probability at p=0.05 was carried out. Coincidence of results in the parallel tests was analyzed.

[2] = test system: C.trachomatis D323; experiment: Action on Chlamydia trachomatis in cell culture; assay type: cell-based; settings: 100 mg/l; for Number of unchanged cells: 48 hours, counted in 100 visual fields, cell control 8.000, infected cells 6.000
Procedure: The antimicrobial activity of the claimed compounds was studied relative to C.trachomatis […], which is a standard strain from the collection of the chair of microbiology of St. Petersburg State Pavlov Medical University. […] Cell cultures McCoy and L929 obtained from the Institute of Cytology of RAS were used in this work. Cells were grown in flasks made of neutral glass in the medium RPMI-1640 with the addition of 10% of fetal calf serum. The test was performed in glass (non-toxic) flat-bottom flasks with cover glasses. The cells were introduced into the medium in the final concentration of […]. […] Simultaneously, tested compounds in a final concentration of 100 mg/l were added to the cells. The sample was centrifuged at 2400 G during 60 minutes at room temperature and incubated at 37° C. for 2 hours. […] The samples were doubled using the medium without cycloheximide so as to exclude its effect on the investigated compounds. The samples were incubated in a CO2-incubator for 48 hours. […] The effect of the action of substance was determined by analysis of the monolayer state and number of cells with CPI when compared with the control (cell culture infected with C.trachomatis […]); in doing so, the number of unchanged cells, that were counted in 100 visual fields obtained using the special net of the microscope eyepiece, was taken into consideration. […] Control of cell culture: morphology of cells and state of monolayer correspond to the given type of the cells; control of chlamydia growth in the cell culture: presence of CPI in the monolayer; control of action of standard antimicrobial agent: reduction of number of CPI in the monolayer as compared to the previous control; control of toxicity of the claimed compounds: toxicity is absent; control of action of solvents: toxic action on cells is absent.

[3] = test system: Herpes virus of the type I (HSV-I/Leningrad/248/88); experiment: Effect on Herpes virus, cytopathogenic action on Vero cells; assay type: cell-based, Herpes Simplex virus; settings: compound 100 μg/ml; for Quantity of the unchanged cells (number of cells in 100 visual fields): Vero cells, 36 hours, cell control 10000; for percentage of protection of cells from virus: compared to the control of cell culture
Procedure: An antiviral activity was determined with respect to Herpes virus of the type I (HSV-I/Leningrad/248/88) by means of commonly accepted method. Viruses were grown on a continuous culture of Vero cells that have been received from the Bank of Cell Cultures of the Institute of Cytology of the Russian Academy of Science.
A virus in a final concentration of […] and the claimed compounds dissolved in DMSO in final concentrations of 100, 10 and 1 mg/l were added to cells that were grown on the RPMI-1640 medium with 10% fetal calf serum and placed into wells of the 96-well plate. 5 separate wells were used for each of tested concentrations of an agent. The plate was incubated during 60 minutes at 38° C. in a CO2-incubator. After the incubation, the virus was removed and then a fresh medium containing claimed compounds in used concentrations was again introduced.
Results were evaluated basing on presence of cytopathogenic action on the cells after 36 hours of incubation at 38° C. in the CO2-incubator.
The next controls were used in the experiment: • 1. Control of cell culture (capability to grow properly) • 2. Control of the virus (evaluation of capability for reproduction) • 3. Control of an antiviral activity of an antiviral drug Acyclovir • 4. Control of compounds (toxicity of compounds) • 5. Control of a solvent (DMSO) for toxicity.
To estimate a cytopathic action of the virus, a quantity of the unchanged cells was calculated in 100 visual fields formed by a special net of an eyepiece of the inverted microscope.

| Structure (SMILES) | Content of IFN in induction mixture after 24-hour incubation ([1]; substance 1 mg/l) [IU/3 × 10^4 lymph./ml] | Content of IFN in induction mixture after 24-hour incubation ([1]; substance 10 mg/l) [IU/3 × 10^4 lymph./ml] | Content of IFN in induction mixture after 24-hour incubation ([1]; substance 100 mg/l) [IU/3 × 10^4 lymph./ml] | percentage of cell protection from infection [2] | Number of unchanged cells [2] | Quantity of the unchanged cells (number of cells in 100 visual fields) [3] | percentage of protection of cells from virus [3] |
| --- | --- | --- | --- | --- | --- | --- | --- |
| O=C1NC(=S)N(c2ccc(Cl)cc2)C(=O)C1=NO [XLVI] | 6.6 ± 0.8 | 24.4 ± 1.4 | 52.1 ± 1.8 |  |  |  |  |
| CC(Cc1ccccc1)N1C(=O)NC(=O)C(=NO)C1=O (centres unmarked) [XVII] | 6.2 ± 0.5 | 13.0 ± 2.5 | 19.2 ± 1.2 | (35%) | 6.700 |  |  |
| O=C1NC(=O)N(CCc2ccc(F)cc2)C(=O)C1=NO [XV] |  |  |  |  |  | 4000 | (40%) |
| O=C1NC(=O)N(c2cccc3ccccc23)C(=O)C1=NO [XXXIV] |  |  |  | (35%) | 6.700 |  |  |
| C=CCN1C(=O)C(=NO)C(=O)NC1=S [XXXIX] |  |  |  | (65%) | 7.300 |  |  |
| CCN1C(=O)C(=NO)C(=O)NC1=S [XXXVI] | 5.2 ± 1.0 | 6.8 ± 1.5 | 26.0 ± 1.4 |  |  |  |  |
| CCOc1ccc(N2C(=O)NC(=O)C(=NO)C2=O)cc1 [XXX] |  |  |  | (35%) | 6.700 | 3000 | (30%) |
| Cc1ccccc1N1C(=O)NC(=O)C(=NO)C1=O [XX] |  |  |  |  |  | 3500 | (35%) |
| O=C1NC(=O)N(CCC2=CCCCC2)C(=O)C1=NO [X] | 8.6 ± 1.0 | 11.0 ± 1.2 | 30 ± 1.8 |  |  |  |  |
